Reference: patent US7476672B2, “Acetylenic compounds useful in treating inflammatory disorders” (Janssen Pharmaceutica N.V., priority 2002, dated 2009)
Where two headings read alike, the source gives them in different places.

Assays:
[1] = tested on: reactive oxygen species (ROS); conditions: human patients with rheumatoid arthritis and osteoarthritis, pharmacological doses; cited from earlier work
[2] = tested on: potassium peroxochromate arthritis; conditions: mice, cited from earlier work
[3] = biological target: T1, NADPH-oxidase (Homo sapiens, UniProt P04839); experiment: Oxidase Inhibition Assay (PMA-stimulated superoxide-mediated reduction of Cytochrome c, whole cells); type: cell-based
T1 construct: endogenous in cells; host or cells: human neutrophils isolated from buffy coat
T1 sequence (P04839 1-570): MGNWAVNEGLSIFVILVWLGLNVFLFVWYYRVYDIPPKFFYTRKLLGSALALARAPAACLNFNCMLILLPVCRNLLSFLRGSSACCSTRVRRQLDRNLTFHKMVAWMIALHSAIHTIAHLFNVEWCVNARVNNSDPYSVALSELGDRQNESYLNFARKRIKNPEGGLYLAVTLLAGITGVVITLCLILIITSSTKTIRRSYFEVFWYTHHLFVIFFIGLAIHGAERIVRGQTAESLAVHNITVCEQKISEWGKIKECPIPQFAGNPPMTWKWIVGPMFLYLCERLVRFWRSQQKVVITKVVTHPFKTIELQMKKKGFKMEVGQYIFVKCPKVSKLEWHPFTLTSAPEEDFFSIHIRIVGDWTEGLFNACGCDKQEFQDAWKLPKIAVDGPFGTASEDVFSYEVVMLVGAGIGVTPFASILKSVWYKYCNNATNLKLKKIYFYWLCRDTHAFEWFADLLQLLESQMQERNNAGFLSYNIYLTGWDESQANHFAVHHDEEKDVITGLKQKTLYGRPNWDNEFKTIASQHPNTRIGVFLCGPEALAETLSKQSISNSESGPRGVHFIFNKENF
Method: Whole cells (human neutrophils) are incubated with a pro-inflammatory agonist phorbol myristate acetate (PMA) in the presence or absence of test compound to measure the superoxide-mediated reduction of Cytochrome c at 550 nm. Inhibition of the oxidase is determined by a decreased absorbance at 550 nm, in response to test compound, relative to the absorbance seen with a vehicle control.
The buffy coat from one unit of blood is split evenly into four 50 mL tubes. To each tube 30 mL 3% Dextran (in 0.9% NaCl) is added and the tubes are inverted to mix. Tubes are allowed to sit undisturbed for 25 minutes. The resulting supernatant is recovered into four fresh tubes and centrifuged for 10 minutes at 600×g, 4° C. The supernatant is discarded and pellets are resuspended in 35 mL 0.9% saline. 10 mL Ficoll-Paque PLUS (Pharmacia Biotech AB) is layered beneath the cell suspension and centrifuged at 600×g for 40 minutes at room temperature. The supernatant is again discarded and tubes are tapped to loosen the resulting pellets. 20 mL 0.2% ice cold saline is added for 30 seconds followed by 20 mL 1.6% ice cold saline to lyse the remaining erythrocytes in the pellets. The pellets are centrifuged for 10 minutes at 600×g, 4° C., and the supernatant is discarded. The neutrophil pellets are resuspended in HBSS-glucose buffer (1 mg/mL), adding 2.5 mL to each tube for a total volume of 10 mL. The cell suspension is then counted on a hemocytometer.
The cell suspension is diluted to a concentration of 5×10^6/mL in HBSS-glucose and treated with 1 μg/mL Cytochalasin B (5 mg/mL DMSO) for 10 minutes at 37° C. in a shaking water bath. Cells are diluted to 6×10^5 cells/mL in 92 μM Cytochrome C for a final concentration of 5×10^4 cells/well.
The NADPH-oxidase assay is run on a Biomek 2000 workstation. The workstation adds 2.5 μL compound per well from source plates plus 12.5 μL per well 4 μM PMA (agonist). This volume is brought up to 100 μL total per well in the assay plates upon the addition of the prepared cells (85 μL). The final concentration of drug is 25 μM and PMA is 0.5 μM under these conditions.
The QC curve is a dose-response curve (from about 31.25 nM to about 4000 nM) for competitive binding against a known oxidase inhibitor such as DPI (diphenylene iodonium chloride). The format used for each compound tested is as follows:
The plates are incubated for 1 hour at 37° C. without CO2. The plates are then incubated at room temperature for 30 minutes and the absorbance is read at 550 nm.

CN1C(C(=O)Nc2ccccn2)=C(O)c2ccccc2S1(=O)=O [Piroxicam]
reduction of levels of ROS [1]: 25%

c1ccc2c(c1)[I+]c1ccccc1-2 [DPI, diphenylene iodoniumchloride]
inhibition of the arthritis ([2]; 10 mmol/kg): Complete inhibition | inhibition of the arthritis ([2]; daily doses of 2.8 μmol/kg): 50% | inhibition at 10 µM ([3]; QC wells G-H, 2.5 μL of 10 μM DPI, at 250 nm (so in the source), agonist added): ~70%

Cc1cc(C#Cc2ccc(Cl)cc2)ccc1OCCNCc1ccc(CNCCC2CCCN2C)cc1 (stereo not drawn) [Compound 13, N^1-[2-[4-[(4-chlorophenyl)ethynyl]-2-methylphenoxy]ethyl]-N^4-[2-(1-methyl-2-pyrrolidinyl)ethyl]-1,4-benzenedimethanamine]
melting point: 251 to 254 °C | IC50 ([3]; human neutrophils, PMA 0.5 μM, absorbance at 550 nm): 1 µM
